In US20090246249A1, “COATING COMPOSITIONS HAVING IMPROVED PERFORMANCE” (priority 2008, published 2009):
Square brackets hold non-standard residues; d marks the D form. Ends that are not written are not given here. * marks the point of attachment. Myristoyl = CCCCCCCCCCCCCC(=O)*; Lauroyl = CCCCCCCCCCCC(=O)*; linker = not defined here; Aun = NCCCCCCCCCCC(=O)O

How the values were obtained:
[1] = Critical micelle concentration (methyl orange assay); assay type: physicochemical; conditions: pH 7 PBS, methyl orange 0.04 mM, A484
Experimental: Formation of a composition of the invention, and evidence of macromolecular network formation, may be monitored or quantified by any means known in the art. In this example, macromolecular formation was detected using a standard assay for determining critical micelle concentration (“CMC”). In this assay, a solution containing the composition of the invention (in a range of concentrations in pH 7 phosphate buffered saline (“PBS”)) was mixed with a solution of methyl orange (0.04 mM in PBS), and the absorbance of the mixture was measured at 484 nm (A484). CMC is the concentration at which a sharp decrease in absorbance at A484 is observed, a change in the optical properties of methyl orange when trapped in a hydrophobic phase, such as caused by self-association as a macromolecular network (Table 7, “CMC”). Also included in this assay were an assay control peptide having an amino acid sequence of SEQ ID NO:122 (Table 7, “Control”), and compound 119 (a PEGylated peptide, the peptide having an amino acid sequence of SEQ ID NO:122, as described in more detail in Example 6 herein).

[2] = system: Staphylococcus aureus strain MZ100; assay: Tibia pin assay: coated titanium pins with vancomycin, bacterial cfu count; assay type: cell-based; set-up: key: —: “−” means no cfus; “many” means too many cfus to count, as they converge into one spot; conditions: pin coated with test sample + vancomycin
Text: In this assay, titanium pins were used as a model for tibia pins. Briefly, sterile pins were first coated with biofunctional composition (“SEQ ID NO:124-linker-SEQ ID NO:122”) comprising a substrate-binding peptide having binding specificity for vancomycin (“SEQ ID NO:124”) linked to a substrate-binding peptide having binding specificity for metal (“SEQ ID NO:122”), or a composition of the invention formed from compound comprising the biofunctional composition covalently coupled to fatty acid. The respective coatings also include vancomycin bound thereto. The coated pins were then placed in a silicone tube containing liquid bacterial growth medium and inoculated with bacteria. After incubation, the pins were removed, and then the liquid growth medium was serially diluted. The serial dilutions were inoculated onto bacterial culture plates, the plates were incubated, and counted on the plates were bacterial colonies.
In this assay, test samples (biofunctional composition (Table 6, “BC”) or compositions 133, 134, 135, 136 139) each were used to coat a pin by incubating the test sample (in a range of from about 0.8 mM to about 1 mM) with 2.5 μl of a 10 mM vancomycin solution and PBS to a final volume of 250 μl in a microtube (3 pins per tube) for 60 minutes at room temperature with occasional agitation. In a piece of silicone tubing (1.5 mm inner diameter, 50 mm long), added is tryptic soy broth+0.2% glucose, the coated pin, and 103 colony forming units (cfu) of Staphylococcus aureus strain MZ100 in either a 20 μl inoculum, 40 μl inoculum, or 60 μl inoculum. The tubing is clamped closed, and the tubing is incubated for 37° C. for 3 hours. After 3 hours, serial dilutions (1:10, 1:100, 1:1000) were made of the culture media from each tubing, and 10 μl of the undiluted culture medium and of each dilution were spotted onto the bacterial culture plate. The bacterial culture plate was incubated overnight at 37° C., and then the cfus were counted. The results, a composite of different assay runs, are shown in Table 6 (“−” means no cfus; “many” means too many cfus to count, as they converge into one spot; “NT” means not tested).

[3] = Retention of binding to metal bead after incubation in 10% BSA with 10 mM guanidinium chloride (mimics human plasma); conditions: 18 hour incubation in 10% BSA + 10 mM guanidinium chloride, 37° C.; comparator SEQ ID NO:122
Text: In this example, illustrated are unexpected beneficial properties of the composition of the invention, including but not limited to, one or more improved biophysical properties. Such one or more unexpected beneficial properties of a composition of the invention may comprise an increase in stability. An increase in stability may comprise any one or more of resistance to chemical denaturation, resistance to proteolytic degradation, improved retention to a substrate (e.g., resistance to being competed off a substrate to which it is bound, such as by proteins or other biomolecules found in body tissues). Thus, to ascertain a beneficial property of a composition of the invention, it is compared to the properties of a component of the composition-namely, a substrate-binding peptide by itself (e.g., without fatty acid covalently coupled thereto). An assay was developed that, from our direct comparisons (see, e.g., discussion of FIG. 2 below, and Example 7 herein), mimicked the effect of incubation of substrate-binding peptide with human plasma on stability of binding of a substrate-binding peptide to its substrate. The assay utilized incubations in the presence of 10% bovine serum album (BSA) with 10 mM guanidinium chloride. The high BSA concentration mimics the elevated albumin content of human plasma, and the guanidinium chloride is used to compete with any charged interactions involved in binding of the substrate-binding peptide to its substrate.
In this assay, two immunoassay plates were prepared for a “side-by-side” comparison of binding of a test sample (substrate-binding peptide or composition of the invention) to its substrate with or without the presence of 10% BSA with 10 mM guanidinium chloride. The wells of each 96-well polypropylene plate were incubated with 350 μl BSA 1% in PBS for 30 minutes at 20° C. with 500 rpm shaking. To each well was added one acetone-cleaned 3/32″ 316LVM stainless steel bead, followed by addition of dilutions in PBS of the test sample in a range of concentrations starting from 10 μM. Final volume in each well was 200 μl. The plates were incubated for 1 hour at 20° C. with 500 rpm shaking to allow for the binding to occur. The beads were washed 3 times with 250 μl PBS using a plate washer. […]
In the immunoassay for detecting binding without the presence of 10% BSA with 10 mM guanidinium chloride, added to each well was 200 μl of streptavidin AP (AP is alkaline phosphatase) at 1/200 in TBS+1% BSA. […] When color has developed, each well was read at OD405 nm in endpoint mode using a plate reader. […] When color has developed, the wells were read at OD405 nm in endpoint mode using a plate reader. […]

With “SSHRTNHKKNNPKKKNKTRGSSGK [Compound 131, AUD-AUD-AUD-AUD-AUD-AUD-AUD-AUD-SEQ ID NO:122]” as the substance, how does the CMC [1] read?
The CMC was 0.37 µM.

For “SSHRTNHKKNNPKKKNKTRGSSGK [SEQ ID NO:122]”, which CMC ([1]; listed as Control) is on record?
Its CMC is >>10 μM.

For “LAU-SEQ ID NO:122 (Lauroyl-SSHRTNHKKNNPKKKNKTRGSSGK) [Compound 126]”, which CMC [1] is on record?
Its CMC is 0.37 µM.

With “SSSCLIDMYGVCHNFDGAYDSSRG [Compound 134, AUD-AUD-AUD-AUD-SEQ ID NO:124-linker-SEQ ID NO:122]” as the substance, how does the “cfu 1:10” value ([2]; 20 μl inoculum) read?
The value was “—”.

What about the “cfu 1:100” value ([2]; 20 μl inoculum) of the same substance?
The value was “—”.

What about the “cfu 1:1000” value ([2]; 20 μl inoculum) of the same substance?
The value was “—”.

And the cfu undiluted ([2]; 20 μl inoculum, 103 colony forming units, 3 hours 37° C.)?
The cfu undiluted was “—”.

What about the “cfu 1:10” value ([2]; 40 μl inoculum) of the same substance?
The value was 6 cfu.

And the “cfu 1:100” value ([2]; 40 μl inoculum)?
Its value is 1 cfu.

What about the “cfu 1:1000” value ([2]; 40 μl inoculum) of the same substance?
The value was “—”.

What about the cfu undiluted ([2]; 40 μl inoculum) of the same substance?
Its cfu undiluted is “many”.

What about the “cfu 1:10” value ([2]; 60 μl inoculum) of the same substance?
Its value is 17 cfu.

What about the “cfu 1:100” value ([2]; 60 μl inoculum) of the same substance?
Its value is 5 cfu.

And the “cfu 1:1000” value ([2]; 60 μl inoculum)?
Its value is “—”.

And the cfu undiluted ([2]; 60 μl inoculum)?
Its cfu undiluted is “many”.

For “PALM-PALM-PALM-linker-SEQ ID NO:122 (SSHRTNHKKNNPKKKNKTRGSSGK; also: three palmitoyl groups and linker, attachment not placed) [Compound 129]”, which CMC [1] is on record?
Its CMC is 0.123 µM.

Which CMC [1] does the source give for “MYR-linker-SEQ ID NO:122 ({Myristoyl-linker}-SSHRTNHKKNNPKKKNKTRGSSGK; reading uncertain) [Compound 127]” here?
The CMC was 0.123 µM.

For “Ac-Y-AUD-AUD-AUD-AUD-AUD-AUD-SEQ ID NO:122 (Ac-Y[Aun][Aun][Aun][Aun][Aun][Aun]SSHRTNHKKNNPKKKNKTRGSSGK) [Compound 132]”, which CMC [1] is on record?
The CMC was 0.123 µM.

Which CMC [1] does the source give for “MYR-SEQ ID NO:122 (Myristoyl-SSHRTNHKKNNPKKKNKTRGSSGK) [Compound 125]” here?
Its CMC is 0.123 µM.

For “[MYR]2-K-linker-SEQ ID NO:122 (SSHRTNHKKNNPKKKNKTRGSSGK; also: lysine bearing two myristoyl groups plus linker, attachment not placed) [Compound 128]”, which CMC [1] is on record?
Its CMC is 0.123 µM.

Which CMC [1] does the source give for “AUD-AUD-K-AUD-AUD-AUD-AUD-SEQ ID NO:122 ([Aun][Aun]K[Aun][Aun][Aun][Aun]SSHRTNHKKNNPKKKNKTRGSSGK) [Compound 123]” here?
The CMC was 0.04 µM.

What about the “retention of binding of substrate-binding peptide component to its substrate, compared to substrate-binding peptide alone (FIG. 1)” value [3] of the same substance?
Its value is “significantly improved retention of binding”.

With “AUD-AUD-AUD-AUD-SEQ ID NO:122 ([Aun][Aun][Aun][Aun]SSHRTNHKKNNPKKKNKTRGSSGK) [Compound 122]” as the substance, how does the “retention of binding of substrate-binding peptide component to its substrate, compared to substrate-binding peptide alone (FIG. 1)” value [3] read?
Its value is “significantly improved retention of binding”.

Which CMC [1] does the source give for “SSHRTNHKKNNPKKKNKTRGSSGK [Compound 130, AUD-AUD-AUD-AUD-AUD-AUD-SEQ ID NO:122]” here?
The CMC was 0.041 µM.

Which “retention of binding of substrate-binding peptide component to its substrate, compared to substrate-binding peptide alone (FIG. 1)” value [3] does the source give for “120: amino acid sequence YWAWAYAW (SEQ ID NO:129) covalently coupled to a peptide having the amino acid sequence of SEQ ID NO:122 (YWAWAYAWSSHRTNHKKNNPKKKNKTRGSSGK) [Compound 120, reference compound]” here?
The value was “failed to promote retention of binding”.

Which CMC [1] does the source give for “119: Fmoc-NH-(PEG)27-CO2H covalently coupled to a peptide having the amino acid sequence of SEQ ID NO:122 (PEGylated peptide) (SSHRTNHKKNNPKKKNKTRGSSGK; also: Fmoc-NH-(PEG)27-CO2H coupled, site not given here) [Compound 119, reference compound]” here?
The CMC was >>10 μM.

What about the “retention of binding of substrate-binding peptide component to its substrate, compared to substrate-binding peptide alone (FIG. 1)” value [3] of the same substance?
The value was “failed to promote retention of binding”.
